Reference: ChEMBL document CHEMBL3885881, “DrugMatrix”

Species on record: Rattus norvegicus
Assay: DrugMatrix - Regimen: Daily Repeat
Type: toxicity, organism-based, Sprague-Dawley
Parameters: regimen Daily Repeat, gender Male, age 6-8 weeks
Conditions: in vivo, po, route oral GAVAGE, […]; for ABSOLUTE BASOPHIL / ABSOLUTE EOSINOPHIL / ABSOLUTE LYMPHOCYTE / ABSOLUTE MONOCYTE / ABSOLUTE SEGMENTED NEUTROPHIL / BASOPHIL / EOSINOPHIL / ERYTHROCYTE COUNT / HEMATOCRIT / HEMOGLOBIN / LEUKOCYTE COUNT / LYMPHOCYTE / MEAN CORPUSCULAR HEMOGLOBIN / MEAN CORPUSCULAR HEMOGLOBIN CONCENTRATION / MEAN CORPUSCULAR VOLUME / MONOCYTE / NEUTROPHIL / NUCLEATED RED BLOOD CELLS / PLATELET COUNT: tissue Blood; for ALANINE AMINOTRANSFERASE / ALKALINE PHOSPHATASE / ASPARTATE AMINOTRANSFERASE / BLOOD UREA NITROGEN / CARBON DIOXIDE / CHLORIDE / CHOLESTEROL / CREATINE PHOSPHOKINASE / CREATININE / GLUCOSE / LACTATE DEHYDROGENASE / LIPASE / PHOSPHORUS / POTASSIUM / SODIUM / TOTAL BILIRUBIN / TOTAL PROTEIN / URIC ACID: tissue Plasma
[1] = 0 mg/kg, 72 h, dose level Control, time 3 day
[2] = 0 mg/kg, dose level Control, time 7 day
[3] = 100 mg/kg, 72 h, dose level Low, time 3 day

Cc1ccc(C)c(OCCCC(C)(C)C(=O)O)c1 [GEMFIBROZIL]
ABSOLUTE BASOPHIL [1]: 0 CELLS/uL
ABSOLUTE EOSINOPHIL [1]: 37.33 CELLS/uL
ABSOLUTE LYMPHOCYTE [1]: 6295.33 CELLS/uL
ABSOLUTE MONOCYTE [1]: 122.17 CELLS/uL
ABSOLUTE SEGMENTED NEUTROPHIL [1]: 861.83 CELLS/uL
BASOPHIL [1]: 0%
EOSINOPHIL [1]: 0.5%
ERYTHROCYTE COUNT [1]: 5.2 x10E6/uL
HEMATOCRIT [1]: 32.58%
HEMOGLOBIN [1]: 12.95 G/DL
LEUKOCYTE COUNT [1]: 7.32 x10E3/uL
LYMPHOCYTE [1]: 86%
MEAN CORPUSCULAR HEMOGLOBIN [1]: 24.93 pg
MEAN CORPUSCULAR HEMOGLOBIN CONCENTRATION [1]: 39.77 G/DL
MEAN CORPUSCULAR VOLUME [1]: 62.65 fL
MONOCYTE [1]: 1.67%
NEUTROPHIL [1]: 11.83%
NUCLEATED RED BLOOD CELLS [1]: 0 /100WBC
PLATELET COUNT [1]: 1029 x10E3/uL
ALANINE AMINOTRANSFERASE [1]: 63.67 u/L
ALKALINE PHOSPHATASE [1]: 329.83 u/L
ASPARTATE AMINOTRANSFERASE [1]: 77.67 u/L
BLOOD UREA NITROGEN [1]: 18 mg/dL
CARBON DIOXIDE [1]: 29.67 mmol/L
CHLORIDE [1]: 102.67 MEQ/L
CHOLESTEROL [1]: 64.5 mg/dL
CREATINE PHOSPHOKINASE [1]: 178.67 u/L
CREATININE [1]: 0.18 mg/dL
GLUCOSE [1]: 163.83 mg/dL
LACTATE DEHYDROGENASE [1]: 75.83 u/L
LIPASE [1]: 10 u/L
PHOSPHORUS [1]: 8.28 mg/dL
POTASSIUM [1]: 4.79 MEQ/L
SODIUM [1]: 142.22 MEQ/L
TOTAL BILIRUBIN [1]: 0.22 mg/dL
TOTAL PROTEIN [1]: 5.78 G/DL
URIC ACID [1]: 0.87 mg/dL
ABSOLUTE BASOPHIL [2]: 0 CELLS/uL
ABSOLUTE EOSINOPHIL [2]: 19 CELLS/uL
ABSOLUTE LYMPHOCYTE [2]: 7803.5 CELLS/uL
ABSOLUTE MONOCYTE [2]: 117.83 CELLS/uL
ABSOLUTE SEGMENTED NEUTROPHIL [2]: 1093 CELLS/uL
BASOPHIL [2]: 0%
EOSINOPHIL [2]: 0.17%
ERYTHROCYTE COUNT [2]: 5.84 x10E6/uL
HEMATOCRIT [2]: 35.75%
HEMOGLOBIN [2]: 13.87 G/DL
LEUKOCYTE COUNT [2]: 9.03 x10E3/uL
LYMPHOCYTE [2]: 87.17%
MEAN CORPUSCULAR HEMOGLOBIN [2]: 23.78 pg
MEAN CORPUSCULAR HEMOGLOBIN CONCENTRATION [2]: 38.8 G/DL
MEAN CORPUSCULAR VOLUME [2]: 61.25 fL
MONOCYTE [2]: 1.17%
NEUTROPHIL [2]: 11.5%
NUCLEATED RED BLOOD CELLS [2]: 0 /100WBC
PLATELET COUNT [2]: 1098.67 x10E3/uL
ALANINE AMINOTRANSFERASE [2]: 66 u/L
ALKALINE PHOSPHATASE [2]: 291.83 u/L
ASPARTATE AMINOTRANSFERASE [2]: 80.5 u/L
BLOOD UREA NITROGEN [2]: 15.67 mg/dL
CARBON DIOXIDE [2]: 30 mmol/L
CHLORIDE [2]: 101.67 MEQ/L
CHOLESTEROL [2]: 69.67 mg/dL
CREATINE PHOSPHOKINASE [2]: 363.33 u/L
CREATININE [2]: 0.25 mg/dL
GLUCOSE [2]: 146.5 mg/dL
LACTATE DEHYDROGENASE [2]: 219.67 u/L
LIPASE [2]: 11.33 u/L
PHOSPHORUS [2]: 10.08 mg/dL
POTASSIUM [2]: 5.22 MEQ/L
SODIUM [2]: 144.67 MEQ/L
TOTAL BILIRUBIN [2]: 0.12 mg/dL
TOTAL PROTEIN [2]: 6.33 G/DL
URIC ACID [2]: 0.75 mg/dL
ABSOLUTE BASOPHIL [3]: 0 CELLS/uL
ABSOLUTE EOSINOPHIL [3]: 135 CELLS/uL
ABSOLUTE LYMPHOCYTE [3]: 14816.33 CELLS/uL
ABSOLUTE MONOCYTE [3]: 381.17 CELLS/uL
ABSOLUTE SEGMENTED NEUTROPHIL [3]: 1317.5 CELLS/uL
BASOPHIL [3]: 0%
EOSINOPHIL [3]: 0.67%
ERYTHROCYTE COUNT [3]: 5.65 x10E6/uL
HEMATOCRIT [3]: 35.43%
HEMOGLOBIN [3]: 14.12 G/DL
LEUKOCYTE COUNT [3]: 16.65 x10E3/uL
LYMPHOCYTE [3]: 89%
MEAN CORPUSCULAR HEMOGLOBIN [3]: 25.02 pg
MEAN CORPUSCULAR HEMOGLOBIN CONCENTRATION [3]: 39.85 G/DL
MEAN CORPUSCULAR VOLUME [3]: 62.8 fL
MONOCYTE [3]: 2.33%
NEUTROPHIL [3]: 8%
NUCLEATED RED BLOOD CELLS [3]: 0 /100WBC
PLATELET COUNT [3]: 1185.67 x10E3/uL
ALANINE AMINOTRANSFERASE [3]: 52.83 u/L
ALKALINE PHOSPHATASE [3]: 423.5 u/L
ASPARTATE AMINOTRANSFERASE [3]: 76.17 u/L
BLOOD UREA NITROGEN [3]: 14.67 mg/dL
CARBON DIOXIDE [3]: 31 mmol/L
CHLORIDE [3]: 101.5 MEQ/L
CHOLESTEROL [3]: 48 mg/dL
CREATINE PHOSPHOKINASE [3]: 304.5 u/L
CREATININE [3]: 0.2 mg/dL
GLUCOSE [3]: 145.83 mg/dL
LACTATE DEHYDROGENASE [3]: 103.67 u/L
LIPASE [3]: 11.17 u/L
PHOSPHORUS [3]: 11.08 mg/dL
POTASSIUM [3]: 6.55 MEQ/L
SODIUM [3]: 142.47 MEQ/L
TOTAL BILIRUBIN [3]: 0.2 mg/dL
TOTAL PROTEIN [3]: 5.9 G/DL
URIC ACID [3]: 1.3 mg/dL
